# Publication PMC10547636 (Pharmaceutical Research, 2023)
# How the values were obtained:
# [1] = adults; ref [3], [4]; cited from earlier work
# [2] = Population pharmacokinetic analysis (NONMEM) of intravenous PCM and its metabolites in plasma and urine of preterm neonates born below 32 weeks of gestation; assay type: in vivo; settings: for fVG / fVS / fVO, distribution volume of metabolite as fraction of VP of PCM: V = fV×VP
# Description: Two datasets were pooled in this study. […] The second dataset consisted of data from 83 neonates born before 32 weeks of gestation who were included in the Drug dosage Improvement in Neonates (DINO) study between September 2014 and July 2017. This study was conducted in four Dutch Neonatal Intensive Care Units. The Erasmus Medical Center ethics review board approved the protocols, and written informed consent from parents/legal guardians was obtained before study initiation (NL47409.078.14, MEC-2014-067, NCT02421068). […] The actual urine collection interval and volume varied and were recorded. Plasma samples of all patients were available. […] In dataset 2, the dosing schedule was based on current weight according to Wang et al. […] The dosing regimen could be adapted in individual patients by the treating physician. […] No urine samples were collected. […] For those BLOQ samples, the values obtained with the assay were still reported and these were used in the PopPK analysis. […] Processing and visualization of output from NONMEM were performed in R 4.2.3 (CRAN.R-project.org). Parameters were estimated using the first-order conditional estimation with interaction (FOCE + I) method. […] Parameter precision was obtained with the R covariance matrix. […] The stochastic model included interindividual variability (IIV) and residual variability (RUV). […] SD assumes that the standard deviation of the residual error is the sum of the additive and proportional components. Separate SD1 and SD2 values were tested for each dataset, compound and for plasma and urine samples. […] In those cases, linear interpolation was used for current weight between two existing current weight measurements of the particular patient. For implementation of continuous covariates (birthweight, current weight, GA, PNA, PMA, birthweight Z-score), linear, power, exponential, and sigmoidal functions were tested. For categorical covariates (gender, SGA), additive shift models were tested. Covariates were evaluated based on OFV by a stepwise forward inclusion (ΔOFV > 6.64, P < 0.01) and backward deletion (ΔOFV < 10.83, P > 0.001) process. Besides this, goodness of fit plots split for datasets and covariate quartiles, plots of individual eta-values versus covariate values (ETA plots), and reduction in inter-individual variability on the parameter of interest, were evaluated. A bootstrap analysis (n = 500) stratified on dataset, was performed to assess the robustness of the final model and parameter estimates. […] The NPDEs of urine samples were plotted together due to a limited number of samples per compound. […] This was done to illustrate the concentration-time profiles of each compound under the current practice of linear bodyweight-based dosing. […] In these simulations, the growth curves published by Anchieta et al.
Compound,fraction of PCM metabolized into sulphate conjugate [1] [%],fraction of administered PCM excreted unchanged in the urine [1],fraction of administered dose metabolized via the oxidative route (NAPQI) [1],"θPNA50, PNA at which RFS reaches half of RFS0, bootstrap ([2]; PNA in days, bootstrap estimate (95% CI))","θPNA50, PNA at which RFS reaches half of RFS0 ([2]; PNA in days, final model estimate (RSE %))",non-linear formation of CYP2E1 pathway metabolites (PCM-cysteine and PCM-mercapturate) ([2]; among the dosages given in this study),predicted difference in glucuronidation of PCM with PNA ([2]; between day 1 and day 30),"θBWb, power exponent of birthweight (BWb/985) on RFG, bootstrap ([2]; bootstrap estimate (95% CI))","θBWc, power exponent of current weight (BWc/1012) on VP, bootstrap ([2]; bootstrap estimate (95% CI))","VPP, distribution volume of the peripheral compartment, bootstrap ([2]; bootstrap estimate (95% CI), in L)","TVVP, typical distribution volume of the central compartment (VP), bootstrap ([2]; current weight 1012 g, bootstrap estimate (95% CI))","TVVP, typical distribution volume of the central compartment (VP) ([2]; current weight 1012 g, final model estimate (RSE %))","θBWb, power exponent of birthweight (BWb/985) on RFG ([2]; final model estimate (RSE %))","θBWc, power exponent of current weight (BWc/1012) on VP ([2]; final model estimate (RSE %))","VPP, distribution volume of the peripheral compartment ([2]; final model estimate (RSE %), in L)",contribution of glucuronidation to elimination in neonates ([2]; preterm neonates of this study),"fVG / fVS / fVO, distribution volume of metabolite as fraction of VP of PCM ([2]; final model estimate (RSE %))","TVCLrG / TVCLrS / TVCLrO, typical renal clearance of metabolite, bootstrap ([2]; birthweight 985 g, PNA 5 days, bootstrap estimate (95% CI))","TVCLrG / TVCLrS / TVCLrO, typical renal clearance of metabolite ([2]; birthweight 985 g, PNA 5 days, final model estimate (RSE %))","fVG / fVS / fVO, distribution volume of metabolite as fraction of VP of PCM, bootstrap ([2]; bootstrap estimate (95% CI))"
"CC(=O)Nc1ccc(O)cc1 [PCM, paracetamol]",~30,2–5%,8–10%,8.71 (4.55–15.6),9.18 (23),could not identify this non-linearity,sixfold,0.487 (0.137–0.917),0.844 (0.659–1.05),0.247 (0.167–0.348),0.955 (0.775–1.030) L,0.955 (3) L,0.479 (45),0.836 (11),0.244 (12),5–15%,,,,
"CC(=O)Nc1ccc(O[C@@H]2O[C@H](C(=O)O)[C@@H](O)[C@H](O)[C@H]2O)cc1 [PCM-glucuronide, paracetamol-glucuronide]",,,,,,,,,,,,,,,,,0.6 (9),0.0428 (0.0383–0.0482) L/h,0.0425 (5) L/h,0.6 (0.5–0.8)
"CC(=O)Nc1ccc(OS(=O)(=O)O)cc1 [PCM-sulfate, paracetamol-sulfate]",,,,,,,,,,,,,,,,,0.326 (4),,,0.330 (0.300–0.417)
